Data on 7 compounds can be found in publication PMC11988800, “A Comprehensive In Vitro and In Silico Approach for Targeting 4-Hydroxyphenyl Pyruvate Dioxygenase: Towards New Therapeutics for Alkaptonuria” (International Journal of Molecular Sciences, 2025).

Data set [1] deals with T1, human 4-HPPD (Homo sapiens, UniProt P32754).
Protocol: (§1) 4-HPPD was initially incubated with each compound at saturating concentrations, and the exhaust medium (containing the inhibitor) was removed and replaced with fresh medium without the inhibitor, while the precursor (tyrosine) was added to the substrate. Enzyme activity was monitored by measuring the formation of ochronotic pigment consequent to the formation of HGA. Each inhibitor was analyzed in duplicate, and the analyses were repeated at least three times. In each experiment, control tests were set up as follows: a blank (control without induction), a control without inhibition, and a control with inhibition.
(§2) An optimized version of the jump dilution method was employed to evaluate the residence time of the novel candidate 4-HPPD inhibitors. […] This approach allowed precise tracking of reaction kinetics with high temporal resolution. After determining the IC50 and IC90 values for each tested compound, the enzyme was incubated with the inhibitors at concentrations corresponding to IC90. The exhaust medium containing the inhibitor was subsequently replaced with a fresh and inhibitor-free medium supplemented with tyrosine, the substrate precursor. The recovery of enzymatic activity was monitored over time using spectrophotometric analysis. This analytical approach provided precise measurements of the residence time for each inhibitor.
(§3) Each test was performed in duplicate, and the experiments were replicated at least three times. The tubes were half-capped and stirred at room temperature overnight.
(§4) The tubes were centrifuged at 2500× g for 10 min at 20 °C. The supernatant (exhaust medium) was discarded, while the pellet was resuspended in 7 mL of fresh LBK medium.
(§5) The tubes were incubated at 37 °C with stirring after taking the first sample (T0). Then, every 45 min for a period of 8 h, 220 μL were taken from each tube and placed in an Eppendorf tube, which was centrifuged at 13,000× g for 5 min at 4 °C. Subsequently, 200 μL of supernatant (pigmented medium) from each Eppendorf tube was transferred to a 96-well standard plate, and the absorbance at 405 nm was measured using a multimode plate reader (EnVision 2105, PerkinElmer Inc., Waltham, MA, USA).
(§6) Linear regression analysis was performed to calculate the slope values for each of the two curves corresponding to vs and v0 . These two parameters were then substituted into the equation below and reported for the nonlinear regression analysis of the data related to the tested compounds: Y=vsX+v0−vs /K (1−e^−KX) • Y: Absorbance value (HGA accumulation); • X: time (min); • vs : steady-state velocity; • v0: initial velocity; • K: koff .
Data set [2] has as its target T1, human 4-HPPD. The data set can be described thus: Residence time evaluation by optimized jump dilution method in recombinant E. coli expressing human 4-HPPD.
Protocol: as §1, §2, §3, §4, §5, §6
The target of data set [3] is T1, human 4-HPPD. Nature of the data set: Inhibition assay (IC50/IC90): ochronotic pigment formation in recombinant E. coli expressing human 4-HPPD.
Protocol: To do so, an inhibition assay was set up to test the compounds at different concentrations. The bacterial suspension was incubated in a medium containing 1 mM IPTG, 75 µM Tyr, and the tested inhibitor, monitoring the formation of the ochronotic pigment at 405 nm after 24 h.
The pre-inoculum was prepared in LB medium (Lysogeny Broth) supplemented with glucose (1% final concentration) and kanamycin sulfate (50 µg/mL final concentration). […] The pre-inoculum was incubated overnight at 37 °C under agitation. After measuring the OD600 of the pre-inoculum using LB medium as a blank, it was diluted to a final optical density of 0.1 in LB medium supplemented with kanamycin (LBK). The cell culture was shaken at 37 °C, and the OD600 was measured every 45 min until reaching the mid-log phase (0.6–0.8). Protein expression was then induced by adding isopropyl-β-D-thiogalactopyranoside (IPTG) [26, 27, 28].
Briefly, serial dilutions of the inhibitors were prepared in 96-deep well standard plates, starting from a stock solution of 10^−2 M, and then 600 µL of bacterial suspension (see Section 4.1.1) supplemented with 1 mM IPTG and 75 µg/mL Tyr were added into each well.
In parallel, the control tests were set up as follows: • - Blank: culture medium without cell suspension. • - Negative control: cell suspension without IPTG and Tyr. • - Not-Inhibited control: cell suspension supplemented with 1 mM IPTG and 75 µg/mL Tyr.
The plate was incubated on a microplate shaker at 800 rpm for 24 h.
The plates were centrifuged at 3200× g for 10 min at 4 °C. Subsequently, 150 μL of supernatant (pigmented medium) was transferred to a 96-well standard plate, and the absorbance was measured at 405 nm using a multimode plate reader (EnVision 2105, PerkinElmer Inc., Waltham, MA, USA). GraphPad Prism 8 was used to perform a nonlinear regression analysis (Log[Inhibitor] vs. response—Variable slope (four parameters)) and to obtain the inhibition curve of the compounds.

By koff is commonly meant the rate constant with which the complex falls apart. In general, IC90 refers to the concentration at which the effect reaches the 90% level.

SMILES strings stand for the structures. Where two headings read alike, the source gives them in different places.

T1 sequence (P32754 whole entry): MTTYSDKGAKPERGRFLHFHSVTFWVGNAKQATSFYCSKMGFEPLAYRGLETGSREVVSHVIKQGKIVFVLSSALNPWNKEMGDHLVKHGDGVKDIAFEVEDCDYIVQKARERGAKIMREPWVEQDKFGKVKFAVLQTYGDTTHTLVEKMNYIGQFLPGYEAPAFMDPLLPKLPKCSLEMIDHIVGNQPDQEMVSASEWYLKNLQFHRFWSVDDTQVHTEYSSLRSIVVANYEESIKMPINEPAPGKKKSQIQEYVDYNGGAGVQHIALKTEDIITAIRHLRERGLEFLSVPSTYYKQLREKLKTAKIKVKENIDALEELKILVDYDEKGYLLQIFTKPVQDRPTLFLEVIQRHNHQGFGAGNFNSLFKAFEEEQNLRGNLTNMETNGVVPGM

`CC1(C)CC(=O)C(C(=O)c2ccc([N+](=O)[O-])cc2Cl)C(=O)C1` [c4, 5,5-dimethylcyclohexane-2-(2-chloro-4-nitrobenzoyl)-1,3-dione]: the “half-life (t 1/2)” value in data set [1] worked out at 1.4964 ± 0.23042 h.

As for `CS(=O)(=O)c1ccc(C(=O)C2C(=O)CCCC2=O)c(Cl)c1` [c3, Sulcotrione], the “half-life (t 1/2)” value in data set [1] was 1.3911 ± 0.66537 h. For the same compound, in data set [2], the koff was 0.000167 s⁻¹, the residence time was determined as 120 ± 57.6 min and the “residence time (τ)” value was “higher residence time value than NTBC”. Moreover, the IC90 in data set [3] came out at 200 nM.

As for `CC1(C)CC(=O)C(C(=O)c2ccc(C(F)(F)F)cc2[N+](=O)[O-])C(=O)C1` [c5, 5,5-dimethyl-2-(2-nitro-4-(trifluoromethyl)benzoyl)cyclohexane-1,3-dione], in data set [2], the koff is 5e-05 s⁻¹ and the residence time is 352 ± 53.1 min. For the same compound, the “residence time (τ)” value in data set [2] (derived from koff) is given as “higher residence time value than NTBC”. Further, the IC90 in data set [3] turned out to be 8000 nM.

For the compound `O=C1CCCC(=O)C1C(=O)c1ccc([N+](=O)[O-])cc1Cl` [c6, 2-(2-chloro-4-nitrobenzoyl)1,3-cyclohexanedione], in data set [2], the off-rate (koff) is 0.000133 s⁻¹ and the residence time amounted to 119 ± 4.87 min. For the same compound, the “residence time (τ)” value in data set [2] (derived from koff) is reported as “higher residence time value than NTBC”. Moreover, the IC90 in data set [3] is 8000 nM.

In the case of `CS(=O)(=O)c1ccc(C(=O)C2C(=O)CCCC2=O)c([N+](=O)[O-])c1` [c1, mesotrione], in data set [2], the off-rate (koff) was 6.67e-05 s⁻¹ and the residence time amounted to 228 ± 27.6 min. Further, the “residence time (τ)” value in data set [2] (derived from koff) is reported as “higher residence time value than NTBC”. For the same compound, in data set [3], the IC90 was 2000 nM.

Turning to `CS(=O)(=O)c1ccc(C(=O)C2C(=O)CCCC2=O)c(Cl)c1COCC(F)(F)F` [c2, tembotrione], in data set [1], the “half-life (t 1/2)” value is 1.0852 ± 0.27142 h. For the same compound, in data set [2], the off-rate (koff) was 0.000183 s⁻¹ and the residence time was found to be 94 ± 23.5 min. The 90% effect concentration (IC90) in data set [3] came to 500 nM.

`CC1(C)CC(=O)C=C(OC(=O)c2ccc(C(F)(F)F)cc2Cl)C1` [c7, 5,5-dimethyl-3-oxocyclohexenyl 2-chloro-4-(trifluoromethyl) benzoate]: the “half-life (t 1/2)” value in data set [1] came out at 0.3749 ± 0.04297 h.
